Measured values published in patent US10370412B2, “Beta-hairpin peptidomimetics” (Polyphor AG, priority 2013, dated 2019).
Where a SMILES comes first, the peptide text is derived from it. [ ]: non-standard residue; d: D form. Pro(3S-OH) = O=C(O)[C@H]1NCC[C@@H]1O; Dap(CONH2) = NC(=O)NC[C@H](N)C(=O)O; Cha = N[C@@H](CC1CCCCC1)C(=O)O; aThr = C[C@H](O)[C@H](N)C(=O)O; Chg = N[C@H](C(=O)O)C1CCCCC1; Tle = CC(C)(C)[C@H](N)C(=O)O; dDab = NCC[C@@H](N)C(=O)O; hSer = N[C@@H](CCO)C(=O)O; Orn = NCCC[C@H](N)C(=O)O; Api = NC1(C(=O)O)CCNCC1; Dab = NCC[C@H](N)C(=O)O; Nva = CCC[C@H](N)C(=O)O

Test system: human red blood cells (hRBC)
Assay type: cell-based
Details: red cells of human, 1 h
Procedure: The peptides were tested for their hemolytic activity against human red blood cells (hRBC). Fresh hRBC were washed three times with phosphate buffered saline (PBS) and centrifuged for 10 min at 2000×g. Compounds (100 μg/ml) were incubated with 20% hRBC (v/v) for 1 h at 37° C. and shaking at 300 rpm. The final erythrocyte concentration was approximately 0.9×10^9 cells/ml. A value of 0% and 100% cell lyses, respectively, was determined by incubation of hRBC in the presence of PBS containing 0.001% acetic acid and 2.5% Triton X-100 in H2O, respectively. The samples were centrifuged, the supernatants were 8-fold diluted in PBS buffer and the optical densities (OD) were measured at 540 nm. The 100% lyses value (OD540H2O) gave an OD540 of approximately 0.5-1.0. Percent hemolysis was calculated as follows: (OD540peptide/OD540H2O)×100%.

Point of comparison: CCC[C@@H]1NC(=O)[C@@H]2CCCN2C(=O)[C@H]2CCCN2C(=O)[C@H](CO)NC(=O)[C@H](C)NC(=O)[C@H](C(C)(C)C)NC(=O)[C@H](CCN)NC(=O)[C@H](Cc2c[nH]c3ccccc23)NC(=O)[C@H](CCN)NC(=O)[C@@H](CCN)NC(=O)[C@H](CCCN)NC(=O)[C@H](CCN)NC(=O)[C@H](Cc2ccc(O)cc2)NC(=O)[C@H](Cc2c[nH]cn2)NC1=O [compound 8, cyclo(-Nva-His-Tyr-Dab-Orn-^DDab-Dab-Trp-Dab-tBuGly-Ala-Ser-^DPro-Pro-)] (cyclo([Nva]HY[Dab][Orn][dDab][Dab]W[Dab][Tle]AS[dP]P)), “Hemolysis at 100 μg/ml” value 1%. Against it:
- C[C@@H]1NC(=O)[C@H](C(C)(C)C)NC(=O)[C@H](CCO)NC(=O)[C@H](Cc2c[nH]c3ccccc23)NC(=O)[C@H](CCN)NC(=O)[C@@H](CCN)NC(=O)[C@H](CCCN)NC(=O)[C@H](CCN)NC(=O)[C@H](Cc2ccc(O)cc2)NC(=O)[C@H](Cc2c[nH]cn2)NC(=O)[C@H](Cc2c[nH]c3ccccc23)NC(=O)[C@@H]2CCCN2C(=O)[C@H]2CCCN2C(=O)[C@H](CO)NC1=O [Ex. 1, cyclo(-Trp-His-Tyr-Dab-Orn-^DDab-Dab-Trp-Hse-tBuGly-Ala-Ser-^DPro-Pro-)] (cyclo(WHY[Dab][Orn][dDab][Dab]W[hSer][Tle]AS[dP]P)) — the same, 1%
- C[C@@H]1NC(=O)[C@H](C(C)(C)C)NC(=O)[C@H](CCN)NC(=O)[C@H](Cc2c[nH]c3ccccc23)NC(=O)[C@H](CCN)NC(=O)[C@@H](CCN)NC(=O)[C@H](CCCCN)NC(=O)[C@H](CCN)NC(=O)[C@H](CC2CCCCC2)NC(=O)[C@H](Cc2c[nH]c3ccccc23)NC(=O)[C@H](Cc2c[nH]c3ccccc23)NC(=O)[C@@H]2CCCN2C(=O)[C@H]2CCCN2C(=O)[C@H](CO)NC1=O [Ex. 11, cyclo(-Trp-Trp-Cha-Dab-Lys-^DDab-Dab-Trp-Dab-tBuGly-Ala-Ser-^DPro-Pro-)] (cyclo(WW[Cha][Dab]K[dDab][Dab]W[Dab][Tle]AS[dP]P)) — the same, 1%
- CC(C)(C)[C@@H]1NC(=O)[C@H](CCN)NC(=O)[C@H](Cc2c[nH]c3ccccc23)NC(=O)[C@H](CCN)NC(=O)C2(CCNCC2)NC(=O)[C@H](CCCN)NC(=O)[C@H](CCN)NC(=O)[C@H](CC2CCCCC2)NC(=O)[C@H](Cc2c[nH]cn2)NC(=O)[C@H](Cc2c[nH]c3ccccc23)NC(=O)[C@@H]2[C@@H](O)CCN2C(=O)[C@H]2CCCN2C(=O)[C@H](CO)NC(=O)[C@H](CO)NC1=O [Ex. 14, cyclo(-Trp-His-Cha-Dab-Orn-Pip-Dab-Trp-Dab-tBuGly-Ser-Ser-^DPro-Pro((3S)OH)—)] (cyclo(WH[Cha][Dab][Orn][Api][Dab]W[Dab][Tle]SS[dP][Pro(3S-OH)])) — higher, 4%
- CC(C)(C)[C@@H]1NC(=O)[C@H](CCN)NC(=O)[C@H](Cc2c[nH]c3ccccc23)NC(=O)[C@H](CCN)NC(=O)[C@@H](CCN)NC(=O)[C@H](CCCN)NC(=O)[C@H](CCN)NC(=O)[C@H](CC2CCCCC2)NC(=O)[C@H](Cc2c[nH]c3ccccc23)NC(=O)[C@H](Cc2c[nH]c3ccccc23)NC(=O)[C@@H]2[C@@H](O)CCN2C(=O)[C@H]2CCCN2C(=O)[C@H](CO)NC(=O)[C@H](CO)NC1=O [Ex. 15, cyclo(-Trp-Trp-Cha-Dab-Orn-^DDab-Dab-Trp-Dab-tBuGly-Ser-Ser-^DPro-Pro((3S)OH)—)] (cyclo(WW[Cha][Dab][Orn][dDab][Dab]W[Dab][Tle]SS[dP][Pro(3S-OH)])) — lower, 0%
- COc1ccc(C[C@@H]2NC(=O)[C@H](Cc3c[nH]cn3)NC(=O)[C@H](Cc3c[nH]c4ccccc34)NC(=O)[C@@H]3CCCN3C(=O)[C@H]3CCCN3C(=O)[C@H](CO)NC(=O)[C@H](C)NC(=O)[C@H](C(C)(C)C)NC(=O)[C@H](CCO)NC(=O)[C@H](Cc3c[nH]c4ccccc34)NC(=O)[C@H](CCN)NC(=O)[C@@H](CCN)NC(=O)[C@H](CCCN)NC(=O)[C@H](CCN)NC2=O)cc1 [Ex. 16, cyclo(-Trp-His-Tyr(Me)-Dab-Orn-^DDab-Dab-Trp-Hse-tBuGly-Ala-Ser-^DPro-Pro-)] (cyclo(WHY(Me)[Dab][Orn][dDab][Dab]W[hSer][Tle]AS[dP]P)) — the same, 1%
- CC(C)C[C@@H]1NC(=O)[C@@H]2CCCN2C(=O)[C@H]2CCCN2C(=O)[C@H]([C@H](C)O)NC(=O)[C@H](C)NC(=O)[C@H](C(C)(C)C)NC(=O)[C@H](CCN)NC(=O)[C@H](Cc2c[nH]c3ccccc23)NC(=O)[C@H](CCN)NC(=O)[C@@H](CCN)NC(=O)[C@H](CCCN)NC(=O)[C@H](CCN)NC(=O)[C@H](CC2CCCCC2)NC(=O)[C@H](Cc2c[nH]cn2)NC1=O [Ex. 17, cyclo(-Leu-His-Cha-Dab-Orn-^DDab-Dab-Trp-Dab-tBuGly-Ala-alloThr-^DPro-Pro-)] (cyclo(LH[Cha][Dab][Orn][dDab][Dab]W[Dab][Tle]A[aThr][dP]P)) — higher, 5%
- C[C@@H]1NC(=O)[C@H](C(C)(C)C)NC(=O)[C@H](CCN)NC(=O)[C@H](Cc2c[nH]c3ccccc23)NC(=O)[C@H](CCN)NC(=O)[C@@H](CCN)NC(=O)[C@H](CCCN)NC(=O)[C@H](CCN)NC(=O)[C@H](Cc2ccc(O)cc2)NC(=O)[C@H](Cc2c[nH]cn2)NC(=O)[C@H](Cc2c[nH]c3ccccc23)NC(=O)[C@@H]2CCCN2C(=O)[C@H]2CCCN2C(=O)[C@H](CO)NC1=O [compound 2, cyclo(-Trp-His-Tyr-Dab-Orn-^DDab-Dab-Trp-Dab-tBuGly-Ala-Ser-^DPro-Pro-)] (cyclo(WHY[Dab][Orn][dDab][Dab]W[Dab][Tle]AS[dP]P)) — the same, 1%
- CCC[C@@H]1NC(=O)[C@H](CCN)NC(=O)[C@H](Cc2c[nH]c3ccccc23)NC(=O)[C@H](CCN)NC(=O)[C@@H](CCN)NC(=O)[C@H](CCCN)NC(=O)[C@H](CCN)NC(=O)[C@H](CC2CCCCC2)NC(=O)[C@H](Cc2c[nH]cn2)NC(=O)[C@H](Cc2c[nH]c3ccccc23)NC(=O)[C@@H]2CCCN2C(=O)[C@H]2CCCN2C(=O)[C@H](CO)NC(=O)[C@H](C)NC1=O [compound 3, cyclo(-Trp-His-Cha-Dab-Orn-^DDab-Dab-Trp-Dab-Nva-Ala-Ser-^DPro-Pro-)] (cyclo(WH[Cha][Dab][Orn][dDab][Dab]W[Dab][Nva]AS[dP]P)) — higher, 3%
- CC(C)[C@@H]1NC(=O)[C@H](C(C)(C)C)NC(=O)[C@H](CCN)NC(=O)[C@H](Cc2c[nH]c3ccccc23)NC(=O)[C@H](CCN)NC(=O)[C@@H](CCN)NC(=O)[C@H](CCCN)NC(=O)[C@H](CCN)NC(=O)[C@H](CC2CCCCC2)NC(=O)[C@H](Cc2c[nH]cn2)NC(=O)[C@H](Cc2c[nH]c3ccccc23)NC(=O)[C@@H]2CCCN2C(=O)[C@H]2CCCN2C(=O)[C@H](CO)NC1=O [compound 4, cyclo(-Trp-His-Cha-Dab-Orn-^DDab-Dab-Trp-Dab-tBuGly-Val-Ser-^DPro-Pro-)] (cyclo(WH[Cha][Dab][Orn][dDab][Dab]W[Dab][Tle]VS[dP]P)) — higher, 5%
- CC(C)C[C@@H]1NC(=O)[C@@H]2CCCN2C(=O)[C@H]2CCCN2C(=O)[C@H](CO)NC(=O)[C@H](C)NC(=O)[C@H](C(C)(C)C)NC(=O)[C@H](CCN)NC(=O)[C@H](Cc2c[nH]c3ccccc23)NC(=O)[C@H](CCN)NC(=O)[C@@H](CCN)NC(=O)[C@H](CCCN)NC(=O)[C@H](CCN)NC(=O)[C@H](Cc2ccc(O)cc2)NC(=O)[C@H](Cc2c[nH]cn2)NC1=O [compound 5, cyclo(-Leu-His-Tyr-Dab-Orn-^DDab-Dab-Trp-Dab-tBuGly-Ala-Ser-^DPro-Pro-)] (cyclo(LHY[Dab][Orn][dDab][Dab]W[Dab][Tle]AS[dP]P)) — lower, 0%
- CC(C)C[C@@H]1NC(=O)[C@@H]2CCCN2C(=O)[C@H]2CCCN2C(=O)[C@H](CO)NC(=O)[C@H](CNC(N)=O)NC(=O)[C@H](C(C)(C)C)NC(=O)[C@H](CCN)NC(=O)[C@H](Cc2c[nH]c3ccccc23)NC(=O)[C@H](CCN)NC(=O)C2(CCNCC2)NC(=O)[C@H](CCCN)NC(=O)[C@H](CCN)NC(=O)[C@H](CC2CCCCC2)NC(=O)[C@H](Cc2c[nH]cn2)NC1=O [compound 6, cyclo(-Leu-His-Cha-Dab-Orn-Pip-Dab-Trp-Dab-tBuGly-Alb-Ser-^DPro-Pro-)] (cyclo(LH[Cha][Dab][Orn][Api][Dab]W[Dab][Tle][Dap(CONH2)]S[dP]P)) — higher, 3%
- CC(C)[C@@H]1NC(=O)[C@@H]2CCCN2C(=O)[C@H]2CCCN2C(=O)[C@H](CO)NC(=O)[C@H](C)NC(=O)[C@H](C(C)(C)C)NC(=O)[C@H](CCN)NC(=O)[C@H](Cc2c[nH]c3ccccc23)NC(=O)[C@H](CCN)NC(=O)[C@@H](CCN)NC(=O)[C@H](CCCN)NC(=O)[C@H](CCN)NC(=O)[C@H](Cc2ccc(O)cc2)NC(=O)[C@H](Cc2c[nH]cn2)NC1=O [compound 7, cyclo(-Val-His-Tyr-Dab-Orn-^DDab-Dab-Trp-Dab-tBuGly-Ala-Ser-^DPro-Pro-)] (cyclo(VHY[Dab][Orn][dDab][Dab]W[Dab][Tle]AS[dP]P)) — the same, 1%
- C[C@@H]1NC(=O)[C@H](C2CCCCC2)NC(=O)[C@H](CCN)NC(=O)[C@H](Cc2c[nH]c3ccccc23)NC(=O)[C@H](CCN)NC(=O)[C@@H](CCN)NC(=O)[C@H](CCCCN)NC(=O)[C@H](CCN)NC(=O)[C@H](CC2CCCCC2)NC(=O)[C@H](Cc2c[nH]c3ccccc23)NC(=O)[C@H](Cc2c[nH]c3ccccc23)NC(=O)[C@@H]2CCCN2C(=O)[C@H]2CCCN2C(=O)[C@H](CO)NC1=O [compound 10, cyclo(-Trp-Trp-Cha-Dab-Lys-^DDab-Dab-Trp-Dab-Chg-Ala-Ser-^DPro-Pro-)] (cyclo(WW[Cha][Dab]K[dDab][Dab]W[Dab][Chg]AS[dP]P)) — the same, 1%
